Source: patent US20150201650A1, “DIETARY SUPPLEMENT” (Vetafarm Europe Ltd, priority 2009, published 2015)
Several values for one entry are separate records, joined by “and”; a condition that tells them apart may be missing. Equal values may be shown once. Entries after “also recorded” stand apart in the source; their conditions may differ.

Test system: horses demonstrating agitated behaviour
Assay: Feeding trial of calcium supplements in horses demonstrating agitated behaviour, marked by the feeder
Format: in vivo, horse
Conditions: for average mark for horses: mean of the feeders' marks (1 bad, 5 good); for feeder's general comment on the horse's behaviour during the trial / mark provided by the feeder, based on the effect noted in the behaviour of the horse: single horse; for mark provided by the feeder, based on the effect noted in the behaviour of the horse: mark between 1 and 5 (bad is 1, good is 5)
Source text: The horses were given doses of calcium chelate calculated to provide a loading dose of 12 grams of calcium per day for five days each week for a period of a month. In the calcium carbonate subject the feed dose was 24 or 48 grams of calcium per day. The feeder provided a mark between 1 and 5 where bad is 1 and good is 5. The mark allocated was based on the effect noted in the behaviour of the horse. The feeder also provided general comments on the horses' behaviour during the trial.

[1] = 12 grams of calcium per day, five days each week for a month
[2] = loading dose of 12 grams of calcium per day, five days each week for a month, supplement of the calcium chelate only
[3] = 60 grams of calcium carbonate only
[4] = 120 grams of calcium carbonate only

| Molecule | average mark for horses [1] | feeder's general comment on the horse's behaviour during the trial [1] | mark provided by the feeder, based on the effect noted in the behaviour of the horse [2] | average mark for horses (feed dose 24 or 48 grams of calcium per day as calcium carbonate) | feeder's general comment on the horse's behaviour during the trial [3] | feeder's general comment on the horse's behaviour during the trial [4] | mark provided by the feeder, based on the effect noted in the behaviour of the horse [3] | mark provided by the feeder, based on the effect noted in the behaviour of the horse [4] |
| --- | --- | --- | --- | --- | --- | --- | --- | --- |
| calcium gluconate | 3.33 | calmed down without losing any energy; also recorded: did not notice a difference in the horses' behaviour for the first couple of weeks; also recorded: within two weeks the horse was completely calm | 4.5 and 2.5 and 3 |  |  |  |  |  |
| O=C([O-])[O-].[Ca+2] [calcium carbonate, reference compound] |  |  |  | 1.67 | not much difference in the behaviour; also recorded: No significant change | small improvement in the horse's behaviour but not sufficient for the horse to be ridden | 1.5 and 1 | 2.5 |
| O=C([O-])CC(O)(CC(=O)[O-])C(=O)[O-].O=C([O-])CC(O)(CC(=O)[O-])C(=O)[O-].[Ca+2].[Ca+2].[Ca+2] [calcium citrate] | 4.6 | a lot calmer and rational; also recorded: much calmer and friendlier; also recorded: very good response; also recorded: much calmer generally | 4.5 and 4 and 5 |  |  |  |  |  |
